Assay results: publication PMC3914206

What was measured:
panel of 442 kinases [1] = target: T1, panel of 442 kinases (Homo sapiens, UniProt P30530); format: binding; conditions: Compound Concentration 10 µM
T1 construct: purchased KINOMEscan
T1 sequence (P30530 26-894): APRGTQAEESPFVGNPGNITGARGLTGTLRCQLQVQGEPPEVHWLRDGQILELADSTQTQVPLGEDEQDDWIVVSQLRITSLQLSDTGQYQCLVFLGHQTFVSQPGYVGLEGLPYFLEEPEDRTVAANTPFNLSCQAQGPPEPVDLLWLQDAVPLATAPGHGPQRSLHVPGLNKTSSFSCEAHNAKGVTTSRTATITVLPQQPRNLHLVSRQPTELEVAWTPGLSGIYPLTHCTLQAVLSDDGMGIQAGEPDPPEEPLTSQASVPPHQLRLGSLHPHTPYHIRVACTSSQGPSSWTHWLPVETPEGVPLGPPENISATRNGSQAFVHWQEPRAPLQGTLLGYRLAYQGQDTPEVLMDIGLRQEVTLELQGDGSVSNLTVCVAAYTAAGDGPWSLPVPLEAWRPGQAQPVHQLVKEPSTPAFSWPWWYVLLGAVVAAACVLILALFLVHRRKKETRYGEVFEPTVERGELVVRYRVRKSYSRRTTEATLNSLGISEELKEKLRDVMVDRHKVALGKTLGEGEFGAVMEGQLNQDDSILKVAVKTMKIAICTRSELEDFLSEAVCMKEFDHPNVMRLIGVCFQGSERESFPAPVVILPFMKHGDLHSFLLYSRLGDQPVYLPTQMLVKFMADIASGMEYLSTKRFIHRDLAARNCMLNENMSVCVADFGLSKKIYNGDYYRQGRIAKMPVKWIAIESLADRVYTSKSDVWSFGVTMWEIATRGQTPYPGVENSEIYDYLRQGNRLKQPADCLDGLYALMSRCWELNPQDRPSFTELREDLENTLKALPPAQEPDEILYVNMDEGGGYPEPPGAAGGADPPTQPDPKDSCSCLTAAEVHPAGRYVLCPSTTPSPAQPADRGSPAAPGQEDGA
Text: (§1) We assessed the selectivity of members of this scaffold using the KINOMEscan methodology across a near comprehensive panel of 442 kinases [[18,27]].

panel of 442 kinases [2] = target: T2, panel of 442 kinases (Homo sapiens, UniProt Q86YV6); format: binding; conditions: Compound Concentration 10 µM
T2 construct: purchased KINOMEscan
T2 sequence (Q86YV6 1-388): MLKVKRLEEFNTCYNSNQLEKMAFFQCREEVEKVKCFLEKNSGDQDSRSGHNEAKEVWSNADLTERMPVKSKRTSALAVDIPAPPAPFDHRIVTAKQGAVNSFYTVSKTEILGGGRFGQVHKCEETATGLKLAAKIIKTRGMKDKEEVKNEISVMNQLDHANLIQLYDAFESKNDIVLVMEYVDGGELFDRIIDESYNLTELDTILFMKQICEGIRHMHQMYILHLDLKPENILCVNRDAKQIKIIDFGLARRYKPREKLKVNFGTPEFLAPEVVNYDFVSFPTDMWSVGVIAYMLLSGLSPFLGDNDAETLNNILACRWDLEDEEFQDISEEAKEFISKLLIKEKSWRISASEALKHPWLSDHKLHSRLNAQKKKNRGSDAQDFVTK
Text: as §1

SMILES | KINOMEscan: AXL (panel of 442 kinases [1]) | KINOMEscan: MYLK4 (panel of 442 kinases [2])
COc1cc(C(=O)N2CCC(N3CCN(C)CC3)CC2)ccc1Nc1ncc2c(n1)N(C)c1ccccc1C(=O)N2C [15 (LRRK2-IN-1)] | 100 | 80
COc1cc(C(=O)N2CCC(N3CCN(C)CC3)CC2)ccc1Nc1ncc2c(n1)N1CCc3cccc(c31)C(=O)N2C [Compound 24] | – | 78
COc1cc(C(=O)N2CCC(N3CCN(C)CC3)CC2)ccc1Nc1ncc2c(n1)N(C1CCCC1)c1ccccc1C(=O)N2C [Compound 25, 11-cyclopentyl-2-((2-methoxy-4-(4-(4-methylpiperazin-1-yl)piperidine-1-carbonyl)phenyl)amino)-5-methyl-5H-benzo[e]pyrimido[5,4-b][1,4]diazepin-6(11H)-one] | 100 | 88
CCOc1cc(C(=O)N2CCC(N3CCN(C)CC3)CC2)ccc1Nc1ncc2c(n1)N(C1CCCC1)c1ccccc1C(=O)N2C [Compound 26] | 93 | 100
